From PubChem BioAssay (NCI) come the findings set out here.

Where “and” joins values, the source holds several entries; their conditions need not be identical. Equal values may be shown once.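 Results reflect a 48-hour exposure of cells in 96-well plates to compound at five concentrations. At the GI50, growth is halved. At the TGI there is no net growth.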

Holding throughout (assay): inhibition of tumour cell growth, NCI panel, 48 h
In test [1] the test system is CAKI-1 renal.
The subject of test [2] is SK-OV-3 ovarian.
Test [3] has as its system NCI-H226 lung.
Test [4] relates to HS 578T breast.
Test [5] deals with LOX IMVI melanoma.
The test system of test [6] is NCI-H460 lung.
Test [7] concerns HL-60(TB) leukemia.
Test [8] has as its system EKVX NSCLC.
Test [9] deals with SNB-75 CNS.
For test [10], the system named is OVCAR-3 ovarian.

For `CC(=Nc1ccccc1)C1=C(O)C(Cc2cccc(F)c2)NC1=O` (stereo unspecified), the GI50 in test [1] was 0.049 µM; in test [2], 0.0469 µM; in test [3], 5.25 µM; in test [4] it was 50.1 nM; in test [5], 0.0667 µM; in test [6], 0.0403 µM. In test [7], the GI50 is 33.4 nM. Moreover, the TGI is over 100 µM in [1]; 1.33 µM in test [2]; over 100 µM in [3]; over 100 µM in [4]; over 100 µM in test [5]; over 100 µM in test [6].

Consider `Cc1c(NC(=O)CCl)c(=O)oc2c(C)c3occc(=O)c3cc12`, for which the TGI came to 25.3 µM in test [1]; 32.8 µM in test [2]; 38.2 µM in test [8]; 59.6 µM in test [4]; 27.5 µM in [6]; 21900 nM in [7]. Also, the TGI in test [9] is 8.47 µM.

As for `CCCCC[C@H]1CC=C2C(=O)C=C[C@@H]2CC=CCCCC(=O)O[C@@H](CCCCC)CC=C2C(=O)C=C[C@@H]2CC=CCCCC(=O)O[C@@H](CCCCC)CC=C2C(=O)C=C[C@@H]2CC=CCCCC(=O)O1`, the GI50 in test [2] was 1.62 µM; in test [3], 1.13 µM; in test [8], 0.414 µM; in test [4] it was 773 nM; in [5] it was 0.15 µM; in test [6] it was 0.488 µM. In addition, the results for the GI50 in test [7], in [10] and in test [9] were 243 nM, 192 nM and 4.8 µM, respectively. Moreover, the TGI in test [2] is over 8.75 µM; in test [3], 3.81 µM; in [8], 6.31 µM; in test [4], over 8.75 µM; in test [5], 0.306 µM; in test [6], 2.87 µM. The TGI in [7] was 760 nM; in [10] it was 0.532 µM; in test [9] it was over 8.75 µM.

Take `O=C1CSC(c2ccc(-c3nc4ccccc4[nH]3)cc2)=N1`: the GI50 in test [1] is over 50 µM; in test [2], over 50 µM; in test [8], over 50 µM; in test [4], 25100 nM; in [5] it was 15.7 µM; in test [6], 3.27 µM. Also, the results for the GI50 in test [7] and in test [10] were over 50000 nM and 33800 nM, respectively. The TGI in test [1], in [2], in test [8], in test [4], in test [5] and in test [6] was over 50 µM each time. For the same compound, the TGI in test [7] was over 50000 nM; in test [10], over 50 µM.

For the compound `CCCCCCCCCCCC[N+](C)(C)Cc1ccccc1`, the GI50 was 5.84 µM in test [1]; 3.05 µM in [2]; 2.84 µM in test [3]; 1950 nM in [4]; 3.42 µM in [6]; 1020 nM in test [7]. Besides, the GI50 in test [10] is 1710 nM; in test [9] it was 1.45 µM. In addition, the TGI in test [1] is 24.8 µM; in test [2], 10.7 µM; in [3], 18.6 µM; in test [4], 5.96 µM; in test [6], 12.7 µM; in [7], 2850 nM. The TGI in test [10] amounted to 4.02 µM; in test [9], 3.53 µM.

Regarding `CC(=O)O[C@@]12CO[C@@H]1C[C@H](O)[C@@]1(C)C(=O)[C@H](O)C3=C(C)[C@@H](OC(=O)[C@H](O)[C@@H](NC(=O)OC(C)(C)C)c4ccccc4)C[C@@](O)([C@@H](OC(=O)c4ccccc4)C12)C3(C)C` (stereo partly specified), the GI50 in test [1] is 0.225 µM and 0.181 µM; in test [2], under 0.005 µM; in [3], 12.8 µM; in [4] it was under 5 nM; in [6], under 0.005 µM; in test [7], under 5 nM. In addition, the GI50 in test [10] was under 5 nM. The TGI was 50 µM and 73.6 µM in test [1]; 50 µM and 72.6 µM in test [2]; over 100 µM in test [3]; 23.5 µM and > 100 µM in test [4]; 79 µM in test [5]; 20.1 µM and > 100 µM in test [6]. In test [7], the TGI was 24.1 nM and 34.8 nM.

For `CCNc1cc2oc(=O)cc(C(F)(F)F)c2cc1C`, the TGI in [1], in [2], in test [3], in [8], in test [4] and in test [5] was over 100 µM throughout. For the same compound, the TGI in [6], in test [10] and in test [9] was over 100 µM in each case.

Turning to `COc1cccc(OC(=O)c2ccc(C(F)(F)F)nc2Nc2c(C)cccc2Cl)c1`, the GI50 in test [1] was 16.3 µM; in test [2], 32.9 µM; in test [3] it was 47.7 µM; in test [8], 36.1 µM; in [4], 24700 nM; in [5] it was 20 µM. In addition, the figures for the GI50 in test [6], in [10] and in test [9] were 26.4 µM, 22800 nM and 16.4 µM, respectively. Moreover, the TGI is 48.8 µM in test [1]; over 100 µM in test [2]; over 100 µM in test [3]; over 100 µM in test [8]; 94.6 µM in [4]; 64.8 µM in [5]. Besides, the TGI in [6] is over 100 µM; in test [10], 69.2 µM; in [9], 40.9 µM.

`Cc1ccc(-c2c(C#N)[n+](=O)c3cc(F)c(F)cc3n2[O-])cc1`: the GI50 is 2.48 µM in test [1]; 15.7 µM in test [3]; 21.2 µM in test [8]; 25300 nM in test [4]; over 100 µM in [5]; 12.2 µM in [6]. The values for the GI50 in test [10] and in [9] were 1770 nM and 19.2 µM, respectively. Moreover, the TGI is 5.74 µM in test [1]; 32.3 µM in test [3]; 38.9 µM in [8]; over 100 µM in [4]; over 100 µM in [5]; 30.3 µM in test [6]. The TGI in [10] was determined as 3.61 µM; in test [9], 34.6 µM.

For the compound `C=C1C(=O)O[C@H]2[C@H]1CC/C(COC(=O)c1cn(C)c3ccccc13)=C\CC[C@@]1(C)O[C@@H]21`, the GI50 is 4.33 µM in test [2]; 1.48 µM in [3]; 0.962 µM in test [8]; 2390 nM in test [4]; 0.228 µM in test [5]; 1.73 µM in [6]. In addition, the figures for the GI50 in test [7], in [10] and in test [9] were 1540 nM, 384 nM and 1.09 µM, respectively. Moreover, the TGI is 15 µM in test [2]; 3.26 µM in test [3]; 3.42 µM in test [8]; 9.47 µM in test [4]; 0.81 µM in test [5]; 3.92 µM in test [6]. The TGI in test [7] was 4170 nM; in test [10] it was 1.48 µM; in test [9], 2.32 µM.

Regarding `c1ccc2cc(Cn3cc[n+](Cc4ccc5ccccc5c4)c3)ccc2c1`, the GI50 was 2.15 µM in [2]; 1.72 µM in test [3]; 2.51 µM in test [8]; 1280 nM in [4]; 1.1 µM in test [5]; 1.27 µM in [6]. Also, the GI50 in test [7] was 264 nM; in test [10] it was 675 nM; in test [9], 0.328 µM. The TGI in [2] came out at 11.1 µM; in [3], 14.3 µM; in [8], 15.5 µM; in test [4] it was 8.97 µM; in [5], 2.39 µM; in test [6], 10.4 µM. Moreover, the TGI in [7] came to 1350 nM; in [10] it was 2.18 µM; in test [9], 2.91 µM.

On to `O=C1OCC(c2ccc(O)cc2)=C1c1cc(O)c(O)c(O)c1`, for which the GI50 is 43.2 µM in [1]; over 100 µM in test [3]; over 100 µM in test [8]; over 100000 nM in test [4]; 32.6 µM in [5]; over 100 µM in test [6]. For the same compound, the GI50 is 27900 nM in [10] and over 100 µM in [9]. Further, the TGI in [1] was 89.6 µM; in [3] it was over 100 µM; in [8] it was over 100 µM; in [4], over 100 µM; in [5] it was over 100 µM; in test [6], over 100 µM. Also, the TGI in test [10] was 82.3 µM; in [9], over 100 µM.

As to `Cc1cn(CCC(N)C(=O)O)c(=O)[nH]c1=O` (stereo unspecified), the TGI in test [2], in test [3], in test [8], in [4], in [5] and in [6] was over 100 µM in each case. Further, the values for the TGI in [7], in test [10] and in test [9] were over 100000 nM, over 100 µM and over 100 µM, respectively.

Consider `COc1cc2c3c(n(CCCCNC(=O)OC(C)(C)C)c(=O)c2cc1OC)-c1cc2c(cc1C3=O)OCO2`, for which the GI50 in [1] is 3.45 µM; in test [2] it was over 100 µM; in test [3] it was over 100 µM; in [8], over 100 µM; in test [4], 59000 nM; in test [5], over 100 µM. The GI50 in test [6] is 5.66 µM; in test [10] it was 225 nM; in test [9], 33.2 µM. The TGI in [1] is 74.5 µM; in test [2], over 100 µM; in test [3], over 100 µM; in test [8] it was over 100 µM; in [4] it was over 100 µM; in [5] it was over 100 µM. For the same compound, the results for the TGI in [6], in [10] and in test [9] were over 100 µM, 65.9 µM and over 100 µM, respectively.
